Laboratory results from patent publication US10626368B2, “Method for inducing cerebral cortex neurons” (KYOTO UNIVERSITY, priority 2015, dated 2020).

Legend:
[1] = tested on: ES cells or the iPS cells; experiment: Sphere formation and Pax6 immunostaining after 18 days of suspension culture; assay type: cell-based, human
Procedure: On the day before induction of differentiation, in order to separate the ES cells or the iPS cells, which had been cultured in a culture medium to which 10 μM Y-27632 (WAKO) had been added, from the SNL feeder cells, the SNL cells were removed with CTK and the remaining cells were then dissociated using Accumax (ICT). The cells were transferred on a 96-well plate (Lipidure-coat 96-well plate (NOF Corporation)) in an amount of 9×10^3 cells per well. Thereafter, the cells were subjected to a suspension culture in DMEM/F12 (WAKO) comprising 50 μM Y-27632 (WAKO), 10 μM SB43152 (Sigma), 10 ng/ml bFGF (Invitrogen), various types of Wnt inhibitors (DKK1 (R & D, 500 ng/ml), C59 (Cellagen Technology, 2-10 nM), XAV (Stemgent, 500 nM-2 μM) or IWP4 (Stemgent, 500 nM-2.5 μM)), LDN193189 (Stemgent), KSR (Invitrogen), 0.1 mM MEM non-essential amino acid (Invitrogen), 0.1 mM 2-mercaptoethanol (WAKO), and 2 mM L-Gln (Invitrogen) (initiation of differentiation induction, day 0). […] Furthermore, the expression levels of the Foxg1, Lhx2, Emx2 and CoupTF1 genes in the obtained spheres were measured according to a qPCR method (FIG. 4B). […]

[2] = tested on: ES cells or the iPS cells; experiment: Immunostaining for CoupTF1 and Ctip2 after 46 days of cerebral cortex differentiation; assay type: cell-based, human; conditions: 2 nM C59 as Wnt inhibitor, 46 days; compared with 500 ng/ml DKK1, 500 nM XAV
From the text: Human ES cells (KhES-1) were obtained from Institute for Frontier Medical Sciences, Kyoto University (Suemori H, et al. Biochem Biophys Res Commun. 345: 926-32, 2006). The human iPS cells 404C2 are cells obtained by introducing Oct3/4, Sox2, Klf4, L-MYC, LIN28 and p53shRNA into human fibroblasts, using an episomal vector, and these cells were obtained from Professor Yamanaka et al. in Kyoto University (Okita, et al, Nat Methods. 8: 409-412, 2011). The human iPS cells 836B1 are cells obtained by introducing Oct3/4, Sox2, Klf4, L-MYC, LIN28, GLIS1 and p53shRNA into human fibroblasts, using an episomal vector, and these cells were obtained from Professor Yamanaka et al. in Kyoto University. The ES cells and the iPS cells were cultured on SNL cells (Takahashi K, et al, Cell. 131: 861-872, 2007).
On the day before induction of differentiation, in order to separate the ES cells or the iPS cells, which had been cultured in a culture medium to which 10 μM Y-27632 (WAKO) had been added, from the SNL feeder cells, the SNL cells were removed with CTK and the remaining cells were then dissociated using Accumax (ICT). The cells were transferred on a 96-well plate (Lipidure-coat 96-well plate (NOF Corporation)) in an amount of 9×10^3 cells per well. Thereafter, the cells were subjected to a suspension culture in DMEM/F12 (WAKO) comprising 50 μM Y-27632 (WAKO), 10 μM SB43152 (Sigma), 10 ng/ml bFGF (Invitrogen), various types of Wnt inhibitors (DKK1 (R & D, 500 ng/ml), C59 (Cellagen Technology, 2-10 nM), XAV (Stemgent, 500 nM-2 μM) or IWP4 (Stemgent, 500 nM-2.5 μM)), LDN193189 (Stemgent), KSR (Invitrogen), 0.1 mM MEM non-essential amino acid (Invitrogen), 0.1 mM 2-mercaptoethanol (WAKO), and 2 mM L-Gln (Invitrogen) (initiation of differentiation induction, day 0). […]
The concentration of LDN193189 used in the above-described induction method was examined. […] Furthermore, the expression levels of the CoupTF1 and Sfrp1 genes were measured according to a qPCR method (FIG. 5C). […]

For Cc1cc(-c2ccc(CC(=O)Nc3ccc(-c4cccnc4)cc3)cc2)ccn1 [C59], the “sphere formation in the suspension culture” value ([1]; 1 μM C59, 18 days) was “no spheres were formed”, the “Pax6-positive cells in spheres (immunostaining)” value ([1]; without C59, 2.5 nM and 10 nM C59, 18 days) was “positive cells were confirmed under all conditions” and the “CoupTF1-negative Ctip2-positive cerebral cortex neurons induced” value [2] was “a large number”.
